Assay results as given in US12616740B2, “Methods of using a GIP/GLP1 co-agonist for therapy” (ELI LILLY AND COMPANY, priority 2018, dated 2026).

Columns and labels:
Format in all cases: in vivo, human
[1] = NCT03131687: decrease appetite (reported event)
Protocol: (§1) Clinical Study (NCT03131687) Supporting Maintenance Dose Embodiments A 6-month (26-week) Phase 2 double-blind clinical study is designed to evaluate the safety, efficacy, and PK/PD of 4 dose levels (1 mg, 5 mg, 10 mg and 15 mg respectively) of tirzepatide once weekly by subcutaneous injection compared with dulaglutide 1.5 mg. once weekly (QW) and placebo QW in patients with T2DM who have inadequate glycemic control with diet and exercise with or without a stable dose of metformin. Tirzepatide dose is up-titrated to the maintenance dose using the following weekly dose increments:
(§2) The study also has a 4-week follow up period. In addition to safety and efficacy for treating T2DM, efficacy endpoints include the effect of tirzepatide on HbA1c, FBG, body weight, lipids, and waist circumference compared with placebo and with dulaglutide 1.5 mg. The study also evaluates the effect of tirzepatide on GI tolerability, hypoglycemia, hypersensitivity reactions, and pancreatic safety, as well as the development of treatment-emergent anti-drug antibodies. Model-based dose response analyses are performed to predict potential for significant HbA1c lowering and weight loss in longer studies. Statistical Analyses: Efficacy: The primary efficacy outcome of HbA1c change from baseline to the 26-week endpoint is analyzed using a Bayesian dose-response model. Analyses are performed on the intention to treat population (mITT) analysis set. Supportive analysis of the primary efficacy outcome for the mITT dataset are the model for post-baseline measures (MMRM) with body mass index (BMI) (<30 kg/m^2, ≥30 kg/m^2), metformin use, treatment, visit, and treatment-by-visit interaction as fixed effects, baseline HbA1c as a covariate, and patient as a random effect. The mean weight change from baseline at 12 and 26 weeks, along with the mean change from baseline of HbA1c at 12 weeks, is analyzed using similar dose-response models as the primary analyses. The percentages of patients with ≥5% or ≥10% body weight loss, reaching the HbA1c target of ≤6.5% or ≤7.0% at 26 weeks, or requiring rescue therapy are analyzed using logistic regression with fixed effects of treatment and strata, and baseline as a covariate. The changes from baseline in FBG (fasting blood glucose), SMBG (self-monitored blood glucose) levels, waist circumference, and mean percentage change in lipids from baseline to 12 and 26 weeks are analyzed using a similar MMRM to the one used for the primary analyses. Table Abbreviations: Dula 1.5 mg=dulaglutide 1.5 mg once weekly; LY means tirzepatide, and LY 1 mg=tirzepatide 1 mg once weekly; LY 5 mg=5 mg once weekly; LY 10 mg=escalation dose group tirzepatide once weekly with highest dose of 10 mg; LY 15 mg=escalation dose group of tirzepatide once weekly with highest dose 15 mg; LOCF=last observation-carried-forward; N=number of patients; pbo=placebo; Week 26=mITT on-treatment data at Week 26 excluding data after study drug discontinuation or rescue drug initiation; mITT=modified intent-to-treat; SD=standard deviation. For Table 4, n=number of patients in the population with baseline and post-baseline value at the specified time point. For Table 6, LY10 mg=escalation dose group tirzepatide, once weekly with highest dose of 10 mg; escalation dose: (5 mg weeks 0 and 1), LY15 mg=escalation dose group tirzepatide, once weekly with highest dose of 15 mg; escalation dose: (5 mg weeks 0 and 1; 10 mg weeks 2 to 5); N=number of patients in specified group, m=number of patients who experienced new event during interval, FolUp=follow up, T/Wk=Time range, (week) and %=means percent patients spending at least some time in treatment group who experienced new event during interval. For Table 7, n is the number of patients with events meeting the criteria; N is number of patients in the population; % is percent of patients in treatment group experiencing the event.

[2] = test system: patients with T2DM who have inadequate glycemic control; assay: NCT03131687: mean fasting glucose at Week 26; set-up: Mean change from baseline, fasting glucose: unit not given here
Protocol: as §1, §2

[3] = test system: patients with type 2 diabetes who have inadequate glycemic control; assay: Phase 2 clinical study NCT03311724 (12 weeks, escalation schemes): patients reaching HbA1c target
From the text: This is a 12-week treatment with a 1 week screening (Visit 1) followed by a 1 week lead-in (Visit 2), then 12 weeks of treatment (Visits 3-10, including telephone visits), then followed by 4-week safety follow-up. It is a Phase 2 study designed to examine the efficacy and tolerability of subcutaneously once-weekly tirzepatide compared with placebo in patients with type 2 diabetes who have inadequate glycemic control with diet and exercise alone or with a stable dose of metformin. The study was designed per below and conducted to refine the escalation scheme.

patients with T2DM = assay: Biomarkers measured in clinical studies (eGFR, triglyceride)
Protocol: Clinically relevant biomarkers are measured in clinical studies to further support the use of tirzepatide for treating chronic kidney disease. […] Clinical study laboratory measurements support the use of tirzepatide in the treatment of chronic kidney disease. Clinically relevant biomarkers are measured to assess and support the use of tirzepatide in the treatment of atherosclerosis. Clinically relevant triglyceride levels decrease in all tirzepatide treatment groups. Clinical observations support that tirezepatide can be beneficial for use in the treatment of atherosclerosis.

[4] = LY1 mg = tirzepatide 1 mg once weekly, N = 52
[5] = LY5 mg = tirzepatide 5 mg once weekly, N = 55
[6] = LY10 mg = tirzepatide once weekly, highest dose 10 mg, N = 51
[7] = LY15 mg = tirzepatide once weekly, highest dose 15 mg, N = 53
[8] = LY1 mg = tirzepatide 1 mg once weekly, N 44
[9] = LY5 mg = tirzepatide 5 mg once weekly, N 48
[10] = LY10 mg = tirzepatide once weekly, highest dose 10 mg, N 44
[11] = LY15 mg = tirzepatide once weekly, highest dose 15 mg, N 35
[12] = LY 12 mg Group 3 (tirzepatide 4 mg × 4, 8 mg × 4, 12 mg × 4 once weekly), LOCF Week 12 (N = 28)
[13] = LY 12 mg Group 3 (tirzepatide 4 mg × 4, 8 mg × 4, 12 mg × 4 once weekly), Week 12 mITT on-treatment (N = 27)
[14] = LY 15 mg-Group 1 (tirzepatide 2.5 mg × 2, 5 mg × 2, 10 mg × 4, 15 mg × 4 once weekly), LOCF Week 12 (N = 28)
[15] = LY 15 mg-Group 1 (tirzepatide 2.5 mg × 2, 5 mg × 2, 10 mg × 4, 15 mg × 4 once weekly), Week 12 mITT on-treatment (N = 23)
[16] = LY 15 mg-Group 2 (tirzepatide 2.5 mg × 4, 7.5 mg × 4, 15 mg × 4 once weekly), LOCF Week 12 (N = 27)
[17] = LY 15 mg-Group 2 (tirzepatide 2.5 mg × 4, 7.5 mg × 4, 15 mg × 4 once weekly), Week 12 mITT on-treatment (N = 26)

tirzepatide [LY]
Decrease Appetite (reported): n, number of patients with events [1, 4]: n = 2;
Decrease Appetite (reported): percent of patients in treatment group experiencing the event [1, 4]: 3.8%
Decrease Appetite (reported): n, number of patients with events [1, 5]: n = 10;
Decrease Appetite (reported): percent of patients in treatment group experiencing the event [1, 5]: 18.2%
Decrease Appetite (reported): n, number of patients with events [1, 6]: n = 13;
Decrease Appetite (reported): percent of patients in treatment group experiencing the event [1, 6]: 25.5%
Decrease Appetite (reported): n, number of patients with events [1, 7]: n = 10;
Decrease Appetite (reported): percent of patients in treatment group experiencing the event [1, 7]: 18.9%
Mean change from baseline, fasting glucose [2, 8]: −6.2
Mean glucose value (fasting) [2, 8]: 154.9 mg/dL
Mean change from baseline, fasting glucose [2, 9]: −46.7
Mean glucose value (fasting) [2, 9]: 126.5 mg/dL
Mean change from baseline, fasting glucose [2, 10]: −66.9
Mean glucose value (fasting) [2, 10]: 104.8 mg/dL
Mean change from baseline, fasting glucose [2, 11]: −56.8
Mean glucose value (fasting) [2, 11]: 110.3 mg/dL
fasting serum glucose (in words) ([2]; tirzepatide 5 mg, 10 mg, and 15 mg doses): significantly decrease fasting serum glucose compared with placebo and dulaglutide 1.5 mg
placebo-adjusted changes from baseline in HbA1c (in words) ([3]; 12-mg and 15-mg tirzepatide doses, after 12 weeks of treatment, including an 8-week escalation period): statistically significant and clinically relevant
% of Patients Reaching HbA1c Target <5.7% [3, 12]: 3.6%
% of Patients Reaching HbA1c Target <7% [3, 12]: 71.4%
odds ratio vs. placebo, Patients Reaching HbA1c Target <5.7% [3, 12]: 2.8
odds ratio vs. placebo, Patients Reaching HbA1c Target <7% [3, 12]: 16.1
% of Patients Reaching HbA1c Target <5.7% [3, 13]: 3.7%
% of Patients Reaching HbA1c Target <7% [3, 13]: 74.1%
odds ratio vs. placebo, Patients Reaching HbA1c Target <5.7% [3, 13]: 2.5
odds ratio vs. placebo, Patients Reaching HbA1c Target <7% [3, 13]: 56.5
% of Patients Reaching HbA1c Target <5.7% [3, 14]: 3.6%
% of Patients Reaching HbA1c Target <7% [3, 14]: 78.6%
odds ratio vs. placebo, Patients Reaching HbA1c Target <5.7% [3, 14]: 2.9
odds ratio vs. placebo, Patients Reaching HbA1c Target <7% [3, 14]: 25.1
% of Patients Reaching HbA1c Target <5.7% [3, 15]: 4.3%
% of Patients Reaching HbA1c Target <7% [3, 15]: 87.0%
odds ratio vs. placebo, Patients Reaching HbA1c Target <5.7% [3, 15]: 3.1
odds ratio vs. placebo, Patients Reaching HbA1c Target <7% [3, 15]: 183.5
% of Patients Reaching HbA1c Target <5.7% [3, 16]: 7.4%
% of Patients Reaching HbA1c Target <7% [3, 16]: 85.2%
odds ratio vs. placebo, Patients Reaching HbA1c Target <5.7% [3, 16]: 5.0
odds ratio vs. placebo, Patients Reaching HbA1c Target <7% [3, 16]: 37.9
% of Patients Reaching HbA1c Target <5.7% [3, 17]: 7.7%
% of Patients Reaching HbA1c Target <7% [3, 17]: 84.6%
odds ratio vs. placebo, Patients Reaching HbA1c Target <5.7% [3, 17]: 4.6
odds ratio vs. placebo, Patients Reaching HbA1c Target <7% [3, 17]: 157.5
triglyceride levels (in words) (patients with T2DM; all tirzepatide treatment groups): decrease
eGFR (in words) (patients with T2DM; study NCT03131687, at any dosage): no decrease in eGFR was observed
